Results: PMC9655728, “In Vitro and In Silico Analysis of New n-Butyl and Isobutyl Quinoxaline-7-carboxylate 1,4-di-N-oxide Derivatives against Trypanosoma cruzi as Trypanothione Reductase Inhibitors” (International Journal of Molecular Sciences, 2022)

What was measured:
Format in all cases: biochemical
[1] = biological target: T1, trypanothione reductase (TR) (Trypanosoma brucei, UniProt P39051); assay: spectrophotometric NADPH consumption ([…] nm) with TS2; Lineweaver-Burk and non-linear regression
T1 construct: gene TPR; recombinant Trypanosoma brucei TR
T1 sequence (P39051 whole entry): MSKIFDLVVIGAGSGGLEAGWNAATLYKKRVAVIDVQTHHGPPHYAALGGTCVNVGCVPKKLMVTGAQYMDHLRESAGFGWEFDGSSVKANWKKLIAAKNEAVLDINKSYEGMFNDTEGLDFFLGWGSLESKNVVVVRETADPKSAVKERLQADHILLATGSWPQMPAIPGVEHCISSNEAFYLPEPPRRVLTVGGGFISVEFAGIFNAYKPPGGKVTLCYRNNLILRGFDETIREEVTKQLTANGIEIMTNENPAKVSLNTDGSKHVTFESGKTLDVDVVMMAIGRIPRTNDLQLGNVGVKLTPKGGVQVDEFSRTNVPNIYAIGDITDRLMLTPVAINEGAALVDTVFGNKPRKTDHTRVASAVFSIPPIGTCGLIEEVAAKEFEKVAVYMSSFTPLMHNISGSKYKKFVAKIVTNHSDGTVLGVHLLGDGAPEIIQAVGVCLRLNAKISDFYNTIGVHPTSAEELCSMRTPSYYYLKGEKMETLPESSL

[2] = biological target: T2, human glutathione reductase (hGR) (Homo sapiens, UniProt P00390); assay: spectrophotometric NADPH consumption ([…] nm) with GSSG; Lineweaver-Burk and non-linear regression
T2 construct: gene GSR; recombinant human glutathione reductase
T2 sequence (P00390 44-522): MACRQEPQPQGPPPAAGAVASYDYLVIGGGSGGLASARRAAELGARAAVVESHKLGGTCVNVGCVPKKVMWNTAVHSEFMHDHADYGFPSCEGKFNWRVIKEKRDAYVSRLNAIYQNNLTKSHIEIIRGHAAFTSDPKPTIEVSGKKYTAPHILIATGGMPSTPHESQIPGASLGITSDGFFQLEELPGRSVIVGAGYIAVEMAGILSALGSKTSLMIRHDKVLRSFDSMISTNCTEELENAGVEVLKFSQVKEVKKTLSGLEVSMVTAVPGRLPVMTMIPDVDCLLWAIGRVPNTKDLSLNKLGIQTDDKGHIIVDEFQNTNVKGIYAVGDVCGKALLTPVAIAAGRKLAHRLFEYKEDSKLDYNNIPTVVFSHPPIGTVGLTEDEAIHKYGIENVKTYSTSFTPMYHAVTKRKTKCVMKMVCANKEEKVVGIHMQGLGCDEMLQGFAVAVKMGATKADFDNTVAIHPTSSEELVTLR

[3] = biological target: T1, trypanothione reductase (TR); assay: spectrophotometric NADPH consumption ([…] nm) with TS2; % inhibition at […] ([…] TS2); settings: read-out: % Inhibition of TR / 44 μM [TS2]

`CCCCOC(=O)c1ccc2c(c1)[n+]([O-])c(C(=O)C(C)(C)C)c(C(F)(F)F)[n+]2[O-]` [T-147] showed a Ki [1] of 11.4 µM and a Ki [2] of 25 µM.
Work on `CCCCOC(=O)c1ccc2c(c1)[n+]([O-])c(C(=O)c1ccccc1)c(C(F)(F)F)[n+]2[O-]` [T-148] yielded an inhibition at 20 µM [3] of 36%.
